{"source": "patent EP0367747A2", "about": "“Dideoxy-L-arabinitol derivatives as antiviral compounds” (G.D. Searle & Co., priority 1988, dated 1990)", "key": {"[1]": {"target": "T1, Yeast alpha-glucosidase (Saccharomyces cerevisiae, UniProt P53341)", "T1 construct": "purchased Sigma", "T1 sequence (P53341 whole entry)": "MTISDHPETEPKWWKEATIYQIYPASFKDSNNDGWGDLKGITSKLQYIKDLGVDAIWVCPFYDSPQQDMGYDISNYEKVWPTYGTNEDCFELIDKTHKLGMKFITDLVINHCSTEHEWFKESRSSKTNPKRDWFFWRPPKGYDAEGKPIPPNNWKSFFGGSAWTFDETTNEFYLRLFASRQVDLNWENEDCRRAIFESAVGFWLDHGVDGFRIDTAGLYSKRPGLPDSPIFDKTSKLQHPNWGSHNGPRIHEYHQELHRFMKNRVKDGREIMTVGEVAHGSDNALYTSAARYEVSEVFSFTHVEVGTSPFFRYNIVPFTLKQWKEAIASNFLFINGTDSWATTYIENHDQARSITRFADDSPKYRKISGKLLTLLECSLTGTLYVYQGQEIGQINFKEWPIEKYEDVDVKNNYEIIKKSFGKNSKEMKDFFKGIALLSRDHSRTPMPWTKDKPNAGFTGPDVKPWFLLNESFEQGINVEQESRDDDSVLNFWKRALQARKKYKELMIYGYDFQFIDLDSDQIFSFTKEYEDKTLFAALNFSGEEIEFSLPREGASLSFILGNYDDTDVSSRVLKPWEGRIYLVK", "experiment": "Alpha-glucosidase inhibition assay, pH 7.4 (p-nitrophenol release)", "type": "biochemical", "conditions": "Table 3", "method": "Yeast alpha-glucosidase and almond beta-glucosidase activities were measured by a modification of the method of Evans, et al., Phytochemistry 22, 768-770 (1983). The modifications included 1) assay of activities at pH 7.4 in HEPES (N-2-hydroxyethylpiperazine-N′-2-ethanesulfonic acid) buffer, 2) measurement in 96 well microtiter plates and 3) inclusion of 10% DMSO in control and test samples. The release of p-nitrophenol from the substrate p-nitrophenylglycoside was measured spectrophotometrically in the presence and absence of test compound. Each assay included a known inhibitor of the enzyme as a standard. IC₅₀ values were determined for compounds which inhibited the enzymes more than 50% at a 1 millimolar concentration. To 100 µl 50 mM HEPES buffer, pH 7.4, in a microtiter plate, add 20 µl test compound in DMSO (DMSO alone in control), 40 µl (0.013 units) yeast alpha-glucosidase (Sigma) in HEPES buffer and pre-incubate at room temperature for 15 minutes. […] Absorption change was measured at 15 to 25 minutes (reaction was linear for at least 30 minutes). Each sample was tested in triplicate. IC₅₀ values were determined from the linear portion of the log concentration vs % inhibition curve obtained from a minimum of 3 points. Deoxynojirimycin was used as standard inhibitor."}, "[2]": {"tested_on": "visna virus", "experiment": "Inhibition of visna virus in vitro (plaque reduction assay / 96 well plate assay) in SCP cells", "type": "cell-based", "set-up": "key to Antiviral Activity: A = active compound; I = inactive", "conditions": "for EC50 / inhibition at 1 µM / inhibition at 10 µM / inhibition at 100 µM / inhibition at 1000 µM: Visna-maedi virus; for EC50: inhibition of visna virus, read-out: EC₅₀; for inhibition at 1 µM: Concentration 0.001 mM; for inhibition at 10 µM: Concentration 0.01 mM; for inhibition at 100 µM: Concentration 0.1 mM; for inhibition at 1000 µM: Concentration 1.0 mM; for Antiviral Activity: Table 4", "method": "Various compounds as prepared above were tested for inhibition of visna virus in vitro in a plaque reduction assay as follows:\nSheep choroid plexus(SCP) cells were obtained from American Type Culture Collection (ATCC) catalogue number CRL 1700 and were routinely passaged in vitro in Dulbecco's Modified Eagles (DME) medium supplemented with 20% fetal bovine serum (FBS). SCP cells were passaged once per week at a 1:2 or 1:3 split ratio. Visna was titrated by plaque assay in six-well plates. Virus pools were stored at -70°C.\n(§1) SCP cells were cultured in 6-well plates to confluence. Wells were washed two times with serum free Minimal Essential Medium (MEM) to remove FBS. 0.2ml of virus was added per well in MEM supplemented with 4mM glutamine and gentamycin. After 1 hour adsorption, the virus was aspirated from each well. The appropriate concentration of each compound in 5 ml of Medium 199 (M-199) supplemented with 2% lamb serum, 4mM glutamine, 0.5% agarose and gentamycin was added to each well. Cultures were incubated at 37°C in a humidified 5% CO₂ incubator for 3-4 weeks. To terminate the test: cultures were fixed in 10% formalin, the agar removed, the monolayers stained with 1% crystal violet and plaques counted. Each compound concentration was run in triplicate. […] 0 is no toxicity observed while 4 is total lysing of the cell monolayer.\nThe 96 well plate assay was performed similarly to the plaque assay above with modifications. SCP cells were seeded at 1 x 10⁴ cells per well in 0.1 ml DME medium. When confluent, the wells were washed with serum free MEM and 25ul of virus added in M-199 supplemented with 2% lamb serum. After 1 hour, 75uL of medium containing test compound was added to each well containing virus. After 2-3 weeks incubation the cytopathic effect of the virus was determined by staining with a vital stain. Cell viability was measured by determining stain density using a 96 well plate reader."}, "[3]": {"tested_on": "Sheep choroid plexus(SCP) cells", "experiment": "Toxicity of compounds in control wells without virus, graded morphologically 0 to 4", "type": "cell-based", "set-up": "key: 0 = no toxicity; 4 = total cell lyses", "conditions": "0 to 4 scale", "method": "as §1\nControl wells without virus were completed to determine the toxicity of compounds."}}, "data": [{"smiles": "CCCCCCN1CC(O)C(O)C1CO", "note": "[Example 6, 1,4-(Hexylimino)-1,4-dideoxy-L-arabinitol]", "values": [{"measurement": "IC50", "setting": "[1]; pH 7.4, read-out: α-glucosidase IC₅₀", "result": 35, "unit": "µM"}, {"measurement": "EC50", "setting": "[2]", "result": 125, "unit": "µM"}]}, {"smiles": "CCCCN1C[C@H](OC(C)=O)[C@@H](OC(C)=O)[C@@H]1COC(C)=O", "note": "[Example 5, 1,4-(Butylimino)-1,4-dideoxy-L-arabinitol, triacetate]", "values": [{"measurement": "Toxicity", "setting": "[3]; Concentration 0.001 mM", "result": 0}, {"measurement": "Toxicity", "setting": "[3]; Concentration 0.01 mM", "result": 0}, {"measurement": "Toxicity", "setting": "[3]; Concentration 0.1 mM", "result": 0}, {"measurement": "Toxicity", "setting": "[3]; Concentration 1.0 mM", "result": 0}, {"measurement": "inhibition at 1 µM", "setting": "[2]", "result": 9, "unit": "%"}, {"measurement": "inhibition at 10 µM", "setting": "[2]", "result": 10, "unit": "%"}, {"measurement": "inhibition at 100 µM", "setting": "[2]", "result": 10, "unit": "%"}, {"measurement": "inhibition at 1000 µM", "setting": "[2]", "result": 83, "unit": "%"}]}, {"smiles": "CCC(=O)N1C[C@H](OC(C)=O)[C@@H](OC(C)=O)[C@@H]1COC(C)=O", "note": "[Example 31, 1,4-(Propionylimino)-1,4-dideoxy-L-arabinitol, triacetate]", "values": [{"measurement": "Toxicity", "setting": "[3]; Table 4, 0.1 mM Concn.", "result": 1}, {"measurement": "Toxicity", "setting": "[3]; Table 4, 1.0 mM Concn.", "result": 3}]}, {"smiles": "CC(=O)OCCCCCN1C[C@H](OC(C)=O)[C@@H](OC(C)=O)[C@@H]1COC(C)=O", "note": "[Example 15, 1,4-([5-Acetyloxypentyl]imino)-1,4-dideoxy-L-arabinitol, triacetate]", "values": [{"measurement": "EC50", "setting": "[2]", "result": 100, "unit": "µM"}]}, {"smiles": "CCCCN1C[C@H](O)[C@@H](O)[C@H](O)[C@H]1CO", "note": "[N-Bu-DNJ, N-butyl derivative of 1,5-dideoxy-1,5-imino-D-glucitol, reference compound]", "values": [{"measurement": "Toxicity", "setting": "[3]; Concentration 0.001 mM", "result": 0}, {"measurement": "Toxicity", "setting": "[3]; Concentration 0.01 mM", "result": 0}, {"measurement": "Toxicity", "setting": "[3]; Concentration 0.1 mM", "result": 1}, {"measurement": "Toxicity", "setting": "[3]; Concentration 1.0 mM", "result": 2}, {"measurement": "inhibition at 1 µM", "setting": "[2]", "result": -74, "unit": "%"}, {"measurement": "inhibition at 10 µM", "setting": "[2]", "result": 13, "unit": "%"}, {"measurement": "inhibition at 100 µM", "setting": "[2]", "result": 100, "unit": "%"}, {"measurement": "inhibition at 1000 µM", "setting": "[2]", "result": 100, "unit": "%"}]}, {"smiles": "CCCCCCN1C[C@H](OC(C)=O)[C@@H](OC(C)=O)[C@@H]1COC(C)=O", "note": "[Example 7, 1,4-(Hexylimino)-1,4-dideoxy-L-arabinitol, triacetate]", "values": [{"measurement": "Toxicity", "setting": "[3]; Table 4, 0.01 mM Concn.", "result": 0}, {"measurement": "Toxicity", "setting": "[3]; Table 4, 0.1 mM Concn.", "result": 2}, {"measurement": "Toxicity", "setting": "[3]; Table 4, 1.0 mM Concn.", "result": 4}, {"measurement": "Antiviral Activity", "setting": "[2]; 0.01 mM Concn.", "result": "A"}, {"measurement": "Antiviral Activity", "setting": "[2]; 0.1 mM Concn.", "result": "A"}]}, {"smiles": "CC(=O)OC[C@H]1[C@H](OC(C)=O)[C@@H](OC(C)=O)CN1C(=O)c1ccccc1", "note": "[Example 27, 1,4-(Benzoylimino)-1,4-dideoxy-L-arabinitol, triacetate]", "values": [{"measurement": "inhibition at 1000 µM", "setting": "[1]; at 1 mM, read-out: α-glucosidase Inhibitory Activity", "result": 23, "unit": "%"}]}, {"smiles": "CCc1ccc(CN2C[C@H](O)[C@@H](O)[C@@H]2CO)cc1", "note": "[Example 9, 1,4-([4-Ethylphenyl]methylimino)-1,4-dideoxy-L-arabinitol]", "values": [{"measurement": "EC50", "setting": "[2]", "result": 100, "unit": "µM"}]}, {"smiles": "CCCC(=O)OC[C@@H]1NC[C@H](OC(=O)CCC)[C@H]1OC(=O)CCC", "note": "[Example 23, 1,4-Imino-1,4-dideoxy-L-arabinitol, tributyrate]", "values": [{"measurement": "EC50", "setting": "[2]", "result": 1, "unit": "µM"}]}, {"smiles": "CCc1ccc(CN2C[C@H](OC(C)=O)[C@@H](OC(C)=O)[C@@H]2COC(C)=O)cc1", "note": "[Example 10, 1,4-([4-Ethylphenyl]methylimino)-1,4-dideoxy-L-arabinitol, triacetate]", "values": [{"measurement": "Toxicity", "setting": "[3]; Table 4, 0.01 mM Concn.", "result": 1}, {"measurement": "Toxicity", "setting": "[3]; Table 4, 0.1 mM Concn.", "result": 1}, {"measurement": "Toxicity", "setting": "[3]; Table 4, 1.0 mM Concn.", "result": 4}]}]}
